Here are results for 15 molecules from article PMC7024345 (Molecules, 2020).

“And” between values parts separate entries of the source, which are not always exact repeats. Identical values can stand only once. Like-named read-outs stand apart in the source and are kept apart here.

Data set [1] has as its system differentiated SH-SY5Y cells. Nature of the data set: Neuroprotection against glutamate, MTT reduction. As to conditions: mean ± SD; for MTT reduction, aggressor alone: glutamate 16 mM, 24 h; for MTT reduction: 30 min pre-treatment, then glutamate 16 mM 24 h. Type of data set: cell-based, human. The procedure:
(§1) After 30 min of pre-treatment with Compounds 7 (10 and 50 µM) and 11 (10 µM), the cells were exposed to different aggressors, described above, for 24 h.
(§2) Figure 6 Evaluation of the protective effects of Compounds 7 (10 and 50 µM) and 11 (10 µM) in SH-SY5Y cells against glutamate (16 mM, A), iron(III) (1 mM, B) and Aβ42 (25 µM, C) as oxidative stress inducers. The cells were pre-treated with antioxidants for 30 min and exposed to the aggressors for 24 h. The data are expressed as the means of three independent experiments together with the standard deviation (Mean ± SD). Statistical comparisons were estimated using the nonparametric method of Kruskal–Wallis [one-way ANOVA on ranks] followed by Dunn’s post hoc test (A,B) and using the parametric method of one-way analysis of variance (ANOVA) followed by Dunnett’s multiple comparison test (C, F = 364.2) (Supplementary Table S2). In all cases, p values lower than 0.05 were considered significant (^## p < 0.05, ^#### p < 0.0001 vs. control data; ** p < 0.01, *** p < 0.001, **** p < 0.0001 vs. aggressor values).
(§3) Differentiated human neuroblastoma cells were routinely cultured into […] flasks and maintained in DMEM high glucose (4.5 g/L glucose), supplemented with 10% heat-inactivated FBS (v/v), 1% NEAA (v/v) and 1% penicillin/streptomycin (v/v). The cell cultures were maintained at 37 °C in a humidified 5% CO2–95% air atmosphere and passaged once a week by trypsinization (0.25% trypsin). Neuroblastoma SH-SY5Y cells were seeded onto 96 well plates at a density of 25,000 cells/cm^2 in cell culture medium with trans-retinoic acid (RA, final concentration of 10 µM) and incubated for three days at 37 °C in a humidified, 5% CO2–95% air atmosphere. Then, the medium was supplemented with 12-O-tetradecanoylphorbol-13-acetate (TPA, final concentration of 80 nM), and cells were incubated for three days. Stock solutions of RA (10 mM) and TPA (160 µM) were prepared in DMSO. To avoid phenotypic changes, the cells used for all experiments were taken between the 19th and 28th passages.
(§4) The neuroprotective efficacy of mitochondriotropic antioxidants 7 and 11 was evaluated in a cell-based assay against diverse oxidative stress inducers. Briefly, SH-SY5Y cells were pre-treated with Compounds 7 and 11 followed by incubation with the well-described aggressors that play a role in AD progression, namely Aβ-amyloid 1-42 (Aβ42), ferric nitrilotriacetate (FeNTA) and glutamic acid. Differentiated SH-SY5Y cells were pre-treated with the test compounds 7 (10 and 50 µM) and 11 (10 µM) for 30 min. Then, a culture medium containing Aβ42 (25 µM), iron(III) (1 mM) or glutamic acid (16 mM) was added, and cells were incubated for additional 24 h. A negative control (cells treated with culture medium containing DMSO 0.1%) and a positive control (cells treated with culture medium containing DMSO 0.1%, followed by treatment with aggressors) were also included. Cell viability was estimated using the MTT reduction assay, as described by Fernandes et al..

The test system of a further data set is SH-SY5Y cells. More on the design: method as in PMID 30784884. The following applies: at 50 µM; cited from earlier work.
The subject of data set [2] is differentiated SH-SY5Y cells. The data set is described as follows: Neuroprotection against Aβ42, MTT reduction. Type of data set: cell-based, human. The following applies: mean ± SD; for MTT reduction: 30 min pre-treatment, then Aβ42 25 µM 24 h; for MTT reduction, aggressor alone: Aβ42 25 µM, 24 h. The procedure: as §1, §2, §3, §4
Data set [3] relates to differentiated SH-SY5Y cells. Nature of the data set: Neuroprotection against iron(III), MTT reduction. Type of data set: cell-based, human. The following applies: mean ± SD; for MTT reduction: 30 min pre-treatment, then iron(III) 1 mM 24 h; for MTT reduction, aggressor alone: iron(III) 1 mM, 24 h. The procedure:
as §1, §2, §3, §4
A general note: Tetrazolium assays rely on reduction of a dye to a coloured formazan, in cell work by metabolically active cells.

Data set [4] deals with T1, eeAChE (AChE from electrophorus electricus) (Electrophorus electricus, UniProt O42275).
T1 construct: purchased Sigma-Aldrich (St. Louis, MO, USA)
T1 sequence (O42275 24-633): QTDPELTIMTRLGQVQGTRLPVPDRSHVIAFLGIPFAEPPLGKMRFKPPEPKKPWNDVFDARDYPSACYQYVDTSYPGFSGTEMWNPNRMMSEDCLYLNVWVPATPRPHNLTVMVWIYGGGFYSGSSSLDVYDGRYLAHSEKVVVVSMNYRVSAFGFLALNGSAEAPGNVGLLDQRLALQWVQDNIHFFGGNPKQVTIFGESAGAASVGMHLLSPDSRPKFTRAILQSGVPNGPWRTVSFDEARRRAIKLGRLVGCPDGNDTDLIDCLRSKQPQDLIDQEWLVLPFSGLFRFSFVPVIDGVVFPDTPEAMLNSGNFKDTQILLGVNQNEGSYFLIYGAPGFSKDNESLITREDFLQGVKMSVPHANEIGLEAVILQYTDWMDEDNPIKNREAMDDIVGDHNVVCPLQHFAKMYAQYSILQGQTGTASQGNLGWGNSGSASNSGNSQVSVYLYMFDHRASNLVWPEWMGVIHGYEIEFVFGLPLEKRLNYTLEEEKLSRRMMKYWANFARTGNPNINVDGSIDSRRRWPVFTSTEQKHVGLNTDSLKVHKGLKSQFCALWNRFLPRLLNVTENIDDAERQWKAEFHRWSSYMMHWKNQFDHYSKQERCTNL
Nature of the data set: biochemical. Type of data set: biochemical. The following applies: for IC50: Ellman's method, ATCI substrate, 30 °C; for fold enhancement of eeAChE inhibitory activity: 10 carbon linker compound compared to 6 carbon linker analogue (compounds 3 and 4). The procedure: (§5) Acetylcholinesterase and butyrylcholinesterase inhibitory activities of the compounds under study were evaluated spectrophotometrically following Ellman’s method using AChE from electrophorus electricus (eeAChE) and BChE from equine serum (eqBChE). The lyophilized enzymes were dissolved in sodium phosphate buffer (0.25 M, pH 7.4) to make a stock solution of eeAChE (1000 U/mL) or eqBChE (25 U/mL). […] Briefly, in each well, 100 μL of phosphate buffer, 40 μL of DTNB, 20 μL of the tested compounds (100 µM solution dissolved in 0.1% DMSO and phosphate buffer) and 20 μL of cholinesterase solution were pre-incubated in a 96-well microplate for 5 min at 30 °C. […] The rate of the reaction before adding the enzyme was subtracted from that obtained after enzyme addition in order to correct for spontaneous hydrolysis of substrate.
For orientation: In Ellman's method for cholinesterases, released thiocholine reacts with DTNB.

The target in data set [5] is T2, eqBChE (BChE from equine serum) (Equus caballus, UniProt P81908).
T2 construct: BChE from equine serum (eqBChE); purchased Sigma-Aldrich (St. Louis, MO, USA); host or cells: equine serum
T2 sequence (P81908 whole entry): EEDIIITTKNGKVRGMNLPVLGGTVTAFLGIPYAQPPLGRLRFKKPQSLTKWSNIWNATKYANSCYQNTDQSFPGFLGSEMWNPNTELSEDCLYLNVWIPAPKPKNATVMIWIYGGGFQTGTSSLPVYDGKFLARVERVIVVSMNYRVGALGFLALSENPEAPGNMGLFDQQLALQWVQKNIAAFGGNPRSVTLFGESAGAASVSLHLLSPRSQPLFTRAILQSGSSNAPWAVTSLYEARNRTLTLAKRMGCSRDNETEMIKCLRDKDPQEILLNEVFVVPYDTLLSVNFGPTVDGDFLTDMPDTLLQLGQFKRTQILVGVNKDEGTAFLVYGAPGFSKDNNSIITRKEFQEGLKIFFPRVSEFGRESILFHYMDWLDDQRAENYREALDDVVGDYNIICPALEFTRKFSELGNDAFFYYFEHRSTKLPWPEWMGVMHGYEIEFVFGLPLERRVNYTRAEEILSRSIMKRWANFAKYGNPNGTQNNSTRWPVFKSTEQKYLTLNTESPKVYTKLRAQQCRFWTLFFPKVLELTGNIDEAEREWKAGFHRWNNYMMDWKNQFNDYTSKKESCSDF
Nature of the data set: biochemical. The procedure:
as §5

Data set [6] in a line: Chemical stability observation. Type of data set: physicochemical. An excerpt:
Accordingly, these two compounds were selected for the study as protective agents against glutamate, iron(III) and Aβ42.

The mark [7] stands for this setting: read-out: IC50 eeAChE, mean (CI 95%).
Where [8] appears, read: Ellman's method, BTCI substrate, 30 °C, read-out: IC50 eqBChE, mean (CI 95%).

`N[C@@H](CCC(=O)O)C(=O)O` [Glutamate, L-glutamic acid, reference compound]: the “MTT reduction, aggressor alone” value is on record as 72.68 ± 2.81 % ctrl in data set [1] and “about 72.7 % ctrl” in data set [1] (listed as glutamate).

For `O=C(CCc1ccc(O)c(O)c1)NCCCCCCCCCC[P+](c1ccccc1)(c1ccccc1)c1ccccc1` [Compound 11], in the data set with SH-SY5Y cells, the cytotoxicity result is reported as “presented cytotoxicity”. Further, the MTT reduction was 66.43 ± 3.45 % ctrl and 66.4 % ctrl in data set [2] (compound 10 µM); 82.87 ± 7.87 % ctrl and 82.9 % ctrl in data set [3] (compound 10 µM); 74.97 ± 6.87 % ctrl in data set [1] (compound 10 µM). Further, the IC50 was 1.59 µM in data set [4] (setting [7]) and 320 nM in data set [5] (setting [8]). In addition, in data set [5], the “SI: selectivity index = IC50 (eeAChE)/IC50 (eqBChE)” value (shortened to “SI: selectivity index = IC50”) is 4.9.

In turn, `O=C(CCc1cc(O)c(O)c(O)c1)NCCCCCCCCCC[P+](c1ccccc1)(c1ccccc1)c1ccccc1` [Compound 8] had an IC50 in data set [4] (IC50 eeAChE, mean (CI 95%)) of 5.75 µM. In data set [5], the IC50 was 800 nM and the “SI: selectivity index = IC50” value worked out at 7.2.

Consider `O=C(Cc1ccc(O)c(O)c1)NCCCCCCCCCC[P+](c1ccccc1)(c1ccccc1)c1ccccc1` [Compound 12], for which the IC50 in data set [4] (IC50 eeAChE, mean (CI 95%)) amounted to 2.44 µM; in data set [5], 240 nM. For the same molecule, the “SI: selectivity index = IC50” value in data set [5] is 10.2.

Consider `O=C(Cc1cc(O)c(O)c(O)c1)NCCCCCCCCCC[P+](c1ccccc1)(c1ccccc1)c1ccccc1` [Compound 9], for which the “fold enhancement of eeAChE inhibitory activity” value in data set [4] is reported as 3 fold. Also, the IC50 in data set [4] (IC50 eeAChE, mean (CI 95%)) came to 3.35 µM; in data set [5] it was 530 nM.

Turning to `O=C(/C=C/c1cc(O)c(O)c(O)c1)NCCCCCCCCCC[P+](c1ccccc1)(c1ccccc1)c1ccccc1` [Compound 7], the MTT reduction is 72.55 ± 2.67 % ctrl in data set [2] (compound 10 µM); 68.81 ± 0.70 % ctrl and 68.1 % ctrl in data set [2] (compound 50 µM); 75.90 ± 5.25 % ctrl in data set [3] (compound 10 µM); 80.22 ± 12.76 % ctrl and 80.2 % ctrl in data set [3] (compound 50 µM); 84.24 ± 5.32 % ctrl in data set [1] (compound 10 µM); 81.90 ± 2.81 % ctrl and 81.9 % ctrl in data set [1] (compound 50 µM). In addition, the IC50 in data set [4] (setting [7]) was determined as 3.39 µM; in data set [5] (setting [8]), 110 nM. Besides, in data set [5], the “SI: selectivity index = IC50” value is given as 30.8.

With Aβ-amyloid (1–42) [reference compound], the “MTT reduction, aggressor alone” value was 58.73 ± 2.76 % ctrl in data set [2] and about 58.7 % ctrl in data set [2] (listed as Aβ42).

As for `O=C(Cc1ccc(O)c(O)c1)NCCCCCC[P+](c1ccccc1)(c1ccccc1)c1ccccc1` [Compound 6], inhibition in data set [4] (IC50 eeAChE, mean (CI 95%)) was half-maximal at 3.88 µM (IC50). In data set [5], half-maximal inhibition (IC50) required 930 nM and the “SI: selectivity index = IC50” value is on record as 4.2.

In data set [4] (IC50 eeAChE, mean (CI 95%)), `O=C(Cc1cc(O)c(O)c(O)c1)NCCCCCC[P+](c1ccccc1)(c1ccccc1)c1ccccc1` [Compound 3] yielded an IC50 of 8.98 µM. In data set [5], the IC50 came to 4520 nM and the “SI: selectivity index = IC50” value came out at 2.0.

With `O=C(/C=C/c1ccc(O)c(O)c1)NCCCCCCCCCC[P+](c1ccccc1)(c1ccccc1)c1ccccc1` [Compound 10], the “fold enhancement of eeAChE inhibitory activity” value in data set [4] came to 2 fold. The IC50 in data set [4] (setting [7]) came out at 3.59 µM; in data set [5] (setting [8]) it was 150 nM. Moreover, in data set [5], the “SI: selectivity index = IC50” value amounted to 23.9.

With `O=C(CCc1ccc(O)c(O)c1)NCCCCCC[P+](c1ccccc1)(c1ccccc1)c1ccccc1` [Compound 5], the chemical stability entry in data set [6] was “showed chemical instability”. The same molecule displayed an IC50 in data set [4] (IC50 eeAChE, mean (CI 95%)) of 1.08 µM. Besides, in data set [5], 2520 nM corresponded to half-maximal inhibition (IC50) and the “SI: selectivity index = IC50” value came to 0.4.

In the case of `O=C([O-])CN(CC(=O)[O-])CC(=O)[O-].[Fe+3]` [Iron(III), ferric nitrilotriacetate, reference compound], the results for the “MTT reduction, aggressor alone” value in data set [3] and in data set [3] (listed as iron(III)) were 63.06 ± 6.25 % ctrl and about 63.1 % ctrl, respectively.

With `O=C(/C=C/c1cc(O)c(O)c(O)c1)NCCCCCC[P+](c1ccccc1)(c1ccccc1)c1ccccc1` [Compound 1], the results for the concentration for half-maximal inhibition (IC50) in data set [4] (setting [7]) and in data set [5] (setting [8]) were 2.94 µM and 410 nM, respectively. The “SI: selectivity index = IC50” value in data set [5] was 7.2.

Molecule `O=C(CCc1cc(O)c(O)c(O)c1)NCCCCCC[P+](c1ccccc1)(c1ccccc1)c1ccccc1` [Compound 2] displayed an IC50 in data set [4] (IC50 eeAChE, mean (CI 95%)) of 6.76 µM. Also, in data set [5], the IC50 was 3160 nM and the “SI: selectivity index = IC50” value amounted to 2.1.

Consider `O=C(/C=C/c1ccc(O)c(O)c1)NCCCCCC[P+](c1ccccc1)(c1ccccc1)c1ccccc1` [Compound 4], for which the values for the IC50 in data set [4] (setting [7]) and in data set [5] (setting [8]) were 6.32 µM and 120 nM, respectively. Besides, the “SI: selectivity index = IC50” value in data set [5] is 52.7.

As a reminder, the IC50 is the concentration needed to halve the response being measured.
